The target of test [1] is T1, S. cerevisiae type I fungal fatty acid synthase (FAS) (Saccharomyces cerevisiae, UniProt P07149+P19097).
T1 construct: gene FAS1; endogenous alpha6beta6 heterododecamer, native purification by anti-FLAG; C-terminal 3xFLAG on FAS1 (beta) kept; beta 230 kDa, alpha 220 kDa; holo-ACP
Put plainly: cryoEM structure; NADPH oxidation at […] nm. Format: biochemical. Conditions: ER domain near FMN (beta chain); KS-stalled state, 3 mM NADPH, cerulenin-inhibited; weak density, partial binding.

The target of test [2] is T2, C. albicans type I fungal fatty acid synthase (FAS) (Candida albicans, UniProt P34731+P43098).
T2 construct: gene FAS1; endogenous alpha6beta6 complex, native purification by anti-FLAG; C-terminal 6xHIS-3xFLAG on FAS1 (beta) kept; holo-ACP
The test is described as follows: cryoEM structure; NADPH oxidation at […] nm. Format: biochemical. The following applies: ER domain near FMN (beta chain); KS-stalled state, 3 mM NADPH, cerulenin-inhibited; weak density, partial binding.

In test [3] the target is T1, S. cerevisiae type I fungal fatty acid synthase (FAS). It counts as biochemical.
Test [4] concerns the target T2, C. albicans type I fungal fatty acid synthase (FAS). The test is described as follows: cryoEM structure. It counts as binding. The following applies: ER domain (beta chain); Apo state and KS-stalled state.
The target of test [5] is T1, S. cerevisiae type I fungal fatty acid synthase (FAS). The test is described as follows: cryoEM structure. Conditions: ER domain (beta chain); Apo state and KS-stalled state. It counts as binding.

T1 sequence (P07149 whole entry): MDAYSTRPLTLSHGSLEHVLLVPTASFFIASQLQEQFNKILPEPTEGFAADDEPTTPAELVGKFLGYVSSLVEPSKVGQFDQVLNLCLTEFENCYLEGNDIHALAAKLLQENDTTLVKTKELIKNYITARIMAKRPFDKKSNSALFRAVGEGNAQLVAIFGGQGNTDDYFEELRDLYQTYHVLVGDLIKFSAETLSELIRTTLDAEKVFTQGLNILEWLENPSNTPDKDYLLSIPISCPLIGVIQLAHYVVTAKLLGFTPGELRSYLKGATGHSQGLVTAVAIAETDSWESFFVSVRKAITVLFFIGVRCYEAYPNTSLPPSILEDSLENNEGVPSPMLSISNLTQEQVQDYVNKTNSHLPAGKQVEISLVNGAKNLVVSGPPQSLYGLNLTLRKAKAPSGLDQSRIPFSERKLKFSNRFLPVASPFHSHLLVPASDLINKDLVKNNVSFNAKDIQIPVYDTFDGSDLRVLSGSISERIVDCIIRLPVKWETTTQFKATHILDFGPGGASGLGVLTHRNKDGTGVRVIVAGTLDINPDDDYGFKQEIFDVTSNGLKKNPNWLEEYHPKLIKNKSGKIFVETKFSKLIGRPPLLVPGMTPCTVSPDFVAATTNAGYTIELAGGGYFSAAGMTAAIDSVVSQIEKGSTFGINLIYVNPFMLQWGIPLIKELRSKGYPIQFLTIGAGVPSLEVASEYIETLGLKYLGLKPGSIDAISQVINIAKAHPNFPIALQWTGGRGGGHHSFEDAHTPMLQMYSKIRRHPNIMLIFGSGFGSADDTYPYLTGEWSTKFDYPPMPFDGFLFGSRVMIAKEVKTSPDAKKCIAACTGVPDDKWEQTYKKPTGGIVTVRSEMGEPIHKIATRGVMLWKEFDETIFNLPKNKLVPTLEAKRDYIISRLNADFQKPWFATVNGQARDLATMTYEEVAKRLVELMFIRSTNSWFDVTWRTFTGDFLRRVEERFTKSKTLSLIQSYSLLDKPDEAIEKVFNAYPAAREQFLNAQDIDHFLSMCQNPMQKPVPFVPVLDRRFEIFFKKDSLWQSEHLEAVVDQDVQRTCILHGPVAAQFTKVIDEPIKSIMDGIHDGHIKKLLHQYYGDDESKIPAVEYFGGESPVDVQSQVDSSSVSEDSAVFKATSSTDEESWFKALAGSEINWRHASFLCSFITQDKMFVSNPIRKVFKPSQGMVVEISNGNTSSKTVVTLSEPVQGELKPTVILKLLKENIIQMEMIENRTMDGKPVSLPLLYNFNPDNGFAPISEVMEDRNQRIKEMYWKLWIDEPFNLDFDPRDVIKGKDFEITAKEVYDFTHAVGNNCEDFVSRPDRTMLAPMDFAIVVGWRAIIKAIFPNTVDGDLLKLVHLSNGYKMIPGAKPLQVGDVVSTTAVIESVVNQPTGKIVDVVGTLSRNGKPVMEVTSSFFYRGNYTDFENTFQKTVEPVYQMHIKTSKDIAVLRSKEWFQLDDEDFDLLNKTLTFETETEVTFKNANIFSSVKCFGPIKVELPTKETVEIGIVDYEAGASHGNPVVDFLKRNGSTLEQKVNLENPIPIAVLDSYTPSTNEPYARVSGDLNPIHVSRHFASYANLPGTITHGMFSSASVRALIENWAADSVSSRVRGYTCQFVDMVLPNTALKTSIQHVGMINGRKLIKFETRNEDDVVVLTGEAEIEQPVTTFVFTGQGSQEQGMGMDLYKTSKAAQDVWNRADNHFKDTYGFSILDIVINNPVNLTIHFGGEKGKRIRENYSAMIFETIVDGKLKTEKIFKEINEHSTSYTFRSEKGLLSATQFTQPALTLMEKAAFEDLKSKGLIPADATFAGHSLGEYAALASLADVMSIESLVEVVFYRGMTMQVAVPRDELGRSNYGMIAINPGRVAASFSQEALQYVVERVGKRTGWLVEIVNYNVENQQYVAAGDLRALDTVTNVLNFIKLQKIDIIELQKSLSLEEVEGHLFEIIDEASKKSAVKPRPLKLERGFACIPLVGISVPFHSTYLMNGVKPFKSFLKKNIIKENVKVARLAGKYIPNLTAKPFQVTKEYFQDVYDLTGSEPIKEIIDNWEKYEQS
T1 sequence (P19097 whole entry): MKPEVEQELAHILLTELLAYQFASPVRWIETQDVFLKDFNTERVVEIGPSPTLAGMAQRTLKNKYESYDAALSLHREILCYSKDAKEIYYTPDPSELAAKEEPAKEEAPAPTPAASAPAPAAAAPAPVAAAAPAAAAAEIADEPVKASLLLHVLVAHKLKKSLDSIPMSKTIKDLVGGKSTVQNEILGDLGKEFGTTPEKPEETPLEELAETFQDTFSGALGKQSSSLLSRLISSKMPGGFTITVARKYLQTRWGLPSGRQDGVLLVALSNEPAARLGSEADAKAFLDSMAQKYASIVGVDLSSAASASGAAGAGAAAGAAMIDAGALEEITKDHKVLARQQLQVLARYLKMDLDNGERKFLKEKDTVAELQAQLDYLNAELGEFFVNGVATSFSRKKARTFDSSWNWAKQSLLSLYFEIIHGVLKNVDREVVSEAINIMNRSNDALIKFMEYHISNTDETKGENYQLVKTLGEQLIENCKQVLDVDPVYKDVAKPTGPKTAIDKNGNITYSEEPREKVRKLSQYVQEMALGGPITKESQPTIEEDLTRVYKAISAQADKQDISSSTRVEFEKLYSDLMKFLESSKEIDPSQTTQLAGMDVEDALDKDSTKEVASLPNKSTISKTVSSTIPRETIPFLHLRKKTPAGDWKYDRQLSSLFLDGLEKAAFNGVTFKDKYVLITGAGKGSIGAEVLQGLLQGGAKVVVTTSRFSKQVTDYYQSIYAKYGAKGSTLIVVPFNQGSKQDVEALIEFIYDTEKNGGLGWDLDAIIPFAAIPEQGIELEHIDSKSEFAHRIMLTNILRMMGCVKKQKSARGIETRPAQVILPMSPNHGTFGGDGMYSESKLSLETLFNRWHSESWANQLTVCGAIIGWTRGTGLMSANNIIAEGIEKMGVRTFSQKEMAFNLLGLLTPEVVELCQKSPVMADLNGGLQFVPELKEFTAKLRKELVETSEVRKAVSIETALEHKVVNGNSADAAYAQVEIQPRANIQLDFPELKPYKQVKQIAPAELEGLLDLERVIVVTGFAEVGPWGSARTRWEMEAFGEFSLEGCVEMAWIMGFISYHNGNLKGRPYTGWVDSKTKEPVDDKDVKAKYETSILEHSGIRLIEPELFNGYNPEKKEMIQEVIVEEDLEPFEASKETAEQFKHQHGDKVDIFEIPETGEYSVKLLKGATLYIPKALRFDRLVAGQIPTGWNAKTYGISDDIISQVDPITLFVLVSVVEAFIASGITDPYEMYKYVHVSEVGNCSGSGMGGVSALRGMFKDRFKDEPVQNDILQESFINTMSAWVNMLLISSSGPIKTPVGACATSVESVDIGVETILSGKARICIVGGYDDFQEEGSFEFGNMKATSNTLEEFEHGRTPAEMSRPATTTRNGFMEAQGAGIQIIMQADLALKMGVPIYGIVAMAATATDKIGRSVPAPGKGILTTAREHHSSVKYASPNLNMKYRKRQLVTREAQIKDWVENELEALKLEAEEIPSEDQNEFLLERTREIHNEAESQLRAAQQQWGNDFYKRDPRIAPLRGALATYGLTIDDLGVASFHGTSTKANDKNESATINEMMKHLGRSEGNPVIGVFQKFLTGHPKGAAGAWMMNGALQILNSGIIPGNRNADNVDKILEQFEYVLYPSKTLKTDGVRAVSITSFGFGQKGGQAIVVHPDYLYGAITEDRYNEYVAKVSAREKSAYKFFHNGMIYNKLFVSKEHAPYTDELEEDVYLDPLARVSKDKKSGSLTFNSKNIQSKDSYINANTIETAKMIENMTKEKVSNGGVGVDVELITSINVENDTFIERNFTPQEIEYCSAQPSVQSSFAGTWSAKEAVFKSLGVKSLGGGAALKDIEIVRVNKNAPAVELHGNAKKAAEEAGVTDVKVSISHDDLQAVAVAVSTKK

In the case of `NC(=O)C1=CN([C@@H]2O[C@H](COP(=O)(O)OP(=O)(O)OC[C@H]3O[C@@H](n4cnc5c(N)ncnc54)[C@H](OP(=O)(O)O)[C@@H]3O)[C@@H](O)[C@H]2O)C=CC1` [NADPH], the “cryoEM structure; NADPH oxidation at 340 nm” value in test [1] is listed as “Weak NADPH density can also be seen in proximity of FMN”; in test [2] it was “Weak density can be seen for the NADPH in proximity of FMN”.

For `C/C=C/C/C=C/CCC(=O)[C@H]1O[C@H]1C(N)=O` [cerulenin], the not named result in test [3] is given as “are sensitive to cerulenin, a covalent KS-inhibitor”.

Regarding `Cc1cc2nc3c(=O)[nH]c(=O)nc-3n(C[C@H](O)[C@H](O)[C@H](O)COP(=O)(O)O)c2cc1C` [flavin mononucleotide], the cryoEM structure result in test [4] is listed as “catalytic histidine can be modeled with two side chain orientations, one facing FMN”; in test [5] it was “the catalytic histidine side chain is in a single conformation facing FMN”.
